Patent publication US12570975B2, “Composition for diagnosis or treatment of a condition associated with increased activity of EIF4E comprising an EIF4E inhibitor” (SoVarGen Co., Ltd., priority 2019, dated 2026)

Legend:
male mice = experiment: Repeated dose toxicity assay by subcutaneous injection; format: in vivo, mouse; settings: subcutaneous 100 mg/kg, seven times within a month
Experimental: ASO #16, #21, #27, #35, #75, #77, and #89 selected in Example 4 were each assayed for repeated dose toxicity by subcutaneous injection.
Repeated dose toxicity assay of the […] was conducted by Biotoxtech Co., Ltd. In repeated dose toxicity assay, each ASO sequence was subcutaneously injected at a dose of 100 mg/kg to groups of four male mice seven times in total within a month (days 1, 3, 5, 7, 14, 21, and 28). Two days after the last injection, histopathologic observations were made.

C57BL/6J mice [1] = settings: mouse, in vivo
C57BL/6J mice [2] = settings: mouse, in vivo; remark: listed apart in the source
[3] = tested on: mutant-expressing cells in the brain tissue; settings: mouse, in vivo
ADK, IRSp53, and CREB1 = experiment: Immunofluorescence of ADK, IRSp53 and CREB1 after ASO injection; format: in vivo, mouse; settings: week 4-5 after ICV injection
Experimental: (§1) Week 4-5 after intracerebroventricular injection of ASO into the animal models established using pCIG-mTOR mutant-IRES-EGFP vector of Example 1, the brain was removed, fixed, sectioned, and immunostained.
(§2) Immunostaining with antibodies against ADK, CREB1, IRSp53, and eIF4E and Imaging with fluorescence were conducted in the same manner as in Example 2.

eIF4E [4] = experiment: eIF4E expression in cerebral cortex, cerebellum and spinal cord after ICV injection of ASO; settings: mouse, in vivo
Text: Each of panels B to D of FIG. 17 and panels E and F of FIG. 18 represents “normal mice”, whereas panel A of FIG. 17 and panels G and H of FIG. 18 represents “FMCD animal models.”
For this experiment, animal models established using pCIG-mTOR p.C1483Y-IRES-EGFP and pCIG-mTOR p.L2427P-IRES-EGFP of Example 1 were used while animal models established with pCIG-mTOR (WT)-IRES-EGFP […] served as a control. The ASOs were each intracerebroventricularly injected (ICV injection) at a dose of 100-500 μg to the brains of the mice that had been identified to undergo epileptic seizure. From day 3 after ASO injection to up to day 70, 12-hour video were recorded for seizure monitoring 2-3 times a week per mouse.
After intraventricular injection of the ASO candidates to the animal models, eIF4E expression was reduced in the cerebral cortex, the cerebellum, and the spinal cord, with the consequent reduction in seizure frequency.

eIF4E [5] = experiment: Immunofluorescence of eIF4E in brain cells after ASO injection; format: in vivo, mouse; settings: week 4-5 after ICV injection, FMCD models
Experimental: as §1, §2

C57BL/6J mice [6] = settings: mouse, in vivo; remark: listed apart in the source
Experimental: In this regard, ASO was administered by ICV injection. The ASO used in this experiment was ASO #77.
The 3-Chamber test measures social interaction and preference for social novelty. This apparatus consisted of three chambers with dimensions of 12×20×26 cm for the center chamber and dimensions of 14×20×26 cm for the opposite side chambers. Each of the opposite side chambers included a plastic cage (11 cm in diameter, 2.15 cm in height) for an object or stranger mouse in a corner. This experiment consisted of three sessions of habituation (10 min), exploring object/mouse (10 min), and exploring familiar/new mouse (10 min). In the second session, a WT stranger mouse was randomly placed in a plastic cage while the opposite plastic cage was empty. The mouse was allowed to freely explore the whole apparatus. The time spent in each chamber was measured and then used for the subsequent social interaction test. In the last session, a new WT stranger was placed in the empty plastic cage.

eIF4E mRNA = experiment: Inhibitory concentration (IC50) against eIF4E mRNA, real-time PCR, HEK293T; format: cell-based, human
Experimental: In order to calculate IC50 values for ASO sequences, ASO candidates are transfected at different concentrations (20 nM, 80 nM, 320 nM) into the human cell line HEK293T (human) with the aid of iN-fect™ in vitro transfection reagent (15081, iNtRON, Republic of Korea). Twenty four hours after ASO transfection, the cells were harvested and analyzed for eIF4E mRNA expression reduction by real-time PCR. Relative eIF4E mRNA expression was normalized to the expression level using GAPDH as an internal control and was evaluated using the 2^−ΔΔCq method.
For comparison of inhibitory concentrations (IC50) among ASO candidates, a dose-response curve was derived by normalized nonlinear regression using Prism8 program (GraphPad Software, USA) (FIG. 16e).

[7] = tested on: FMCD and epilepsy animal models (mTOR-p.C1483Y, mTOR-p.L2427P); experiment: Light & dark box test, FMCD epilepsy models; format: in vivo, mouse; settings: ASO-eIF4E models compared to ASO-control models
Experimental: Behaviors were recorded and analyzed using EthoVision XT (Noldus).
(§3) Experiments were performed on the FMCD and epilepsy animal models (mTOR-p.C1483Y, mTOR-p.L2427P) of Example 7-1 and the control normal animal models (mTOR-WT). The same sheIF4E as that described in Example 2 was used. Week 2 after sheIF4E injection, the handling was performed in the animals. Week 3 after sheIF4E injection, the animals were subjected to the behavioral tests.
(§4) The epilepsy animal models were subjected to the substantially same behavioral abnormality assay as in Example 6. The results are depicted in FIGS. 28 and 29.
(§5) Briefly, ASO #77 was administered by ICV injection to the FMCD and epilepsy animal models were generated with the pCIG-mTOR mutant-IRES-EGFP of Example 1. ASO #77 was evaluated for therapeutic potential for neuropsychiatric disorder accompanying the FMCD epilepsy animal models in the substantially same manner as in Example 6.

[8] = tested on: FMCD and epilepsy animal models (mTOR-p.C1483Y, mTOR-p.L2427P); experiment: Social avoidance test, FMCD epilepsy models; format: in vivo, mouse; settings: ASO-eIF4E models compared to ASO-control models
Experimental: The arena was a black box (400×400 mm).
as §3, §4, §5

[9] = over 8 weeks after ASO injection, 8-week-old mTOR mutation C57BL/6J mice
[10] = tested on: GFP-labeled mutant cells of FMCD animal models; experiment: Neuronal (mutant) cell size after ICV injection of ASO; format: in vivo, mouse; settings: intractable epilepsy models, week 4-5 after ICV injection
Experimental: Week 4-5 after intracerebroventricular injection of ASO into the FMCD animal models established using pCIG-mTOR mutant-IRES-EGFP vector of Example 1, the brain was removed, fixed, sectioned, and immunostained. For neuronal cell size (FIG. 22), GFP (green)-labeled mutant cells (ASO control or ASO eIF4E) were measured for size in the obtained mouse brain tissues.

C57BL/6J mice [11] = settings: in vivo

ASO #77: eIF4E-targeting antisense oligonucleotide of SEQ ID NO: 77, 2′-MOE gapmer, all phosphorothioate linkages (antisense GATCCTTCACCAATGTTACA; all phosphorothioate, sugars by position and methylation of C not given here; 2'-MOE gapmer)
dead or moribund animals (male mice): No dead or moribund animals
time spent in center (residence time within the light box) (C57BL/6J mice [1]): not changed
number of buried marbles (index of repetitive behavior) (C57BL/6J mice [2]): not changed
delivery into mutant-expressing cells in the brain tissue [3]: effectively delivered
expression of ADK, IRSp53, and CREB1 in the mutation cells (ADK, IRSp53, and CREB1): rescue of the expression of ADK, IRSp53, and CREB1 to a normal level
eIF4E expression in animal models (eIF4E [4]): reduce eIF4E expression
eIF4E expression in brain cells (immunofluorescence) (eIF4E [5]): reduction of eIF4E expression
time spent in sniffing zone (index of sociality) (C57BL/6J mice [6]): not changed
IC50 (eIF4E mRNA; HEK293T, 20, 80, 320 nM, 24 h after transfection, read-out: IC50 against eIF4E mRNA expression): 53.8 nM
eIF4E mRNA expression compared to the mismatch ASO (eIF4E mRNA; HEK293T, at all of the doses (20 nM, 80 nM, 320 nM)): inhibited
time spent in center (residence time within the light box) [7]: increased
time spent to interact with the stranger mouse (social ability and depression) [8]: increased
body weight [9]: recovered to normal conditions
mutant cell size [10]: therapeutic effects
time spent to interact with the stranger mouse (index of sociality and depression) (C57BL/6J mice [11]): not changed
